IC50 data for 19 compounds are collected here from US20230192705A1, “SHP2 INHIBITORS, COMPOSITIONS AND USES THEREOF” (Betta Pharmaceuticals Co., Ltd, priority 2020, published 2023).

This experiment concerns the target T1, SHP2 (Homo sapiens, UniProt Q06124).
T1 sequence (Q06124 1-593): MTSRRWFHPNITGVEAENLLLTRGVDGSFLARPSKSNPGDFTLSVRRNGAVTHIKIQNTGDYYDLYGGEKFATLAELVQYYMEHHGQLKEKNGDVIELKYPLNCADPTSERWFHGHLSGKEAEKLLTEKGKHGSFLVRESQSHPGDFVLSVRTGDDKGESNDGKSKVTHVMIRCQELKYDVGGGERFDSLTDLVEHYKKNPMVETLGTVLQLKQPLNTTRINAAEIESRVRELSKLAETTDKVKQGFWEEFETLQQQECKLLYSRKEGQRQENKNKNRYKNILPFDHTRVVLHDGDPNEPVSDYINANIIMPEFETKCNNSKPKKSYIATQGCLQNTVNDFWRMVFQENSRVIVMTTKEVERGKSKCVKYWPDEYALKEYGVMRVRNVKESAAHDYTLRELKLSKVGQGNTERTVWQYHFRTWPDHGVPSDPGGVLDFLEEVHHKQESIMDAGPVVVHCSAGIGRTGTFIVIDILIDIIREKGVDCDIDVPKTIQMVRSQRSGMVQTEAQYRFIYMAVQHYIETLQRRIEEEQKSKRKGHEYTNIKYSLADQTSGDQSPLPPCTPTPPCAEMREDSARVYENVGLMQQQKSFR
Description: SHP2 allosteric inhibitor enzyme activity assay (DiFMUP fluorescence). The class given is biochemical. From the text: SHP2 is activated by the binding of a bis-tyrosyl-phosphorylated peptide to its Src homologous 2 (SH2) domain. This subsequent activation step leads to the release of the automatic inhibition interface of SHP2, which in turn activates the SHP2 protein tyrosine phosphatase (PTP) and can be used for substrate recognition and reaction catalysis. The catalytic activity of SHP2 was monitored using the alternative DiFMUP in a rapid fluorescence assay format.
Assay procedures are as follows:
(1) Compound Formulation:
The compound of the present invention (10 mM stock solution) was diluted to a suitable multiple with 100% DMSO and assay buffer, and the final test concentration of the compound of the present invention was 1 μM, 0.333 μM, 0.111 μM, 0.0370 μM, 0.0124 μM, 0.00412 μM, 0.00137 μM, 0.00046 μM, 0.00015 μM, 0.00 μM;
(2) Preparation of Enzyme Reaction Working Fluid:
SHP2 enzyme activity was performed using a final reaction volume of 50 μL and the following assay buffer conditions in 96-well black polystyrene plates (flat bottom, low flange, non-bonding surface) (Perki Elmer, Cat #6005270) at room temperature: 60 mM HEPES, 75 mM NaCl, 75 mM KCl, 0.05% BRIJ-35, 1 mM EDTA, 5 mM DTT.
(3) Enzyme Catalytic Reaction and Data Monitoring:
Compounds of the present invention were added to the corresponding 96-well plates, and no compound and enzyme were provided as blank test wells. SHP2 Activating Peptide (IRS1_pY1172 (dPEG8)pY1222) was placed on ice for melting, and 0.5 μM was added per well, then 0.2 ng SHP2 protein samples were added to corresponding well plates, and incubated at room temperature for 1 hour. Substrate DiFMUP (Invitrogen, Cat #D6567) was added to the reaction at room temperature for 1 hour. Fluorescence signals were monitored using an enzyme reader (Envision, Perki Elmer) using excitation wavelengths and emission wavelengths of 340 nm and 450 nm, respectively.
Inhibition %=[1−(Conversion_sample−Conversion_min)/(Conversion_max−Conversion_min)]*100% Calculation formula: […]
where: Conversion_sample is the mean reading of the sample wells; Conversion_min is the mean reading of blank control wells, representing the reading of the wells without enzyme; Conversion_max is the mean of positive control wells, representing the reading of the wells without inhibitor.
The dose-response curve is fitted with GraphPad Prism software and IC50 was calculated by the “log[inhibitor] vs. response-variable slope” program.

pIC50: −log10 of the molar value.

For orientation: pIC50 means −log10 of the IC50, conventionally taken in molar units. Lower therefore signals a high IC50. On to `C[C@@H]1OCC2(CCN(c3nc4[nH]nc(C5(c6ccc7c(c6)OCO7)CC5)c4c(=O)[nH]3)CC2)[C@@H]1N` [Example 286, 6-((3S,4S)-4-amino-3-methyl-2-oxa-8-azaspiro[4.5]decan-8-yl)-3-(1-(benzo[d][1,3]dioxol-5-yl)cyclopropyl)-1,5-dihydro-4H-pyrazolo[3,4-d]pyrimidin-4-one], for which the pIC50 (class symbols) was 7.22 to 7.70.
Take `N[C@@H]1c2ccccc2CC12CCN(c1nc3[nH]nc(C4(c5ncco5)CC4)c3c(=O)[nH]1)CC2` [Example 243, (S)-6-(1-amino-1,3-dihydrospiro[indene-2,4′-piperidin]-1′-yl)-3-(1-(oxazol-2-yl)cyclopropyl)-1,5-dihydro-4H-pyrazolo[3,4-d]pyrimidin-4-one]: under “class symbols”, the negative logarithm of the IC50 (pIC50) was at least 7.70.
Still for that read-out and setting: for `N[C@@H]1c2ccccc2CC12CCN(c1nc3[nH]nc(C4(c5ccnc(-c6ccccn6)c5)CC4)c3c(=O)[nH]1)CC2` [Example 87, (S)-3-(1-([2,2′-bipyridin]-4-yl)cyclopropyl)-6-(1-amino-1,3-dihydrospiro[indene-2,4′-piperidin]-1′-yl)-1,5-dihydro-4H-pyrazolo[3,4-d]pyrimidin-4-one] the value was at least 7.70; for `N[C@@H]1c2ccccc2CC12CCN(c1nc3[nH]nc(C4=CCCc5occc54)c3c(=O)[nH]1)CC2` [Example 119, (S)-6-(1-amino-1,3-dihydrospiro[indene-2,4′-piperidin]-1′-yl)-3-(6,7-dihydrobenzofuran-4-yl)-1,5-dihydro-4H-pyrazolo[3,4-d]pyrimidin-4-one], at least 7.70.
Consider `CN(C)c1cc(C2(c3n[nH]c4nc(N5CCC6(CC5)Cc5ccccc5[C@H]6N)[nH]c(=O)c34)CC2)ccn1` [Example 54, (S)-6-(1-amino-1,3-dihydrospiro[indene-2,4′-piperidin]-1′-yl)-3-(1-(2-(dimethylamino)pyridin-4-yl)cyclopropyl)-1,5-dihydro-4H-pyrazolo[3,4-d]pyrimidin-4-one], for which, under “class symbols”, the negative logarithm of the IC50 (pIC50) was at least 7.70.
On the same count and under the same terms, for `N[C@@H]1c2cc(F)ccc2CC12CCN(c1nc3[nH]nc(C4(c5ccccc5)CC4)c3c(=O)[nH]1)CC2` [Example 195, (S)-6-(1-amino-6-fluoro-1,3-dihydrospiro[indene-2,4′-piperidin]-1′-yl)-3-(1-phenylcyclopropyl)-1,5-dihydro-4H-pyrazolo[3,4-d]pyrimidin-4-one] the value was at least 7.70; for `CN(C)c1nccc(C2(c3n[nH]c4nc(N5CCC6(CC5)Cc5ccccc5[C@H]6N)[nH]c(=O)c34)CC2)c1Cl` [Example 61, (S)-6-(1-amino-1,3-dihydrospiro[indene-2,4′-piperidin]-1′-yl)-3-(1-(3-chloro-2-(dimethylamino)pyridin-4-yl)cyclopropyl)-1,5-dihydro-4H-pyrazolo[3,4-d]pyrimidin-4-one], at least 7.70.
The same measure, in the same setting: under `N[C@@H]1c2ccccc2CC12CCN(c1nc3[nH]nc(C4=CCCc5nc(C(F)(F)F)cc(C(F)(F)F)c54)c3c(=O)[nH]1)CC2` [Example 137, (S)-6-(1-amino-1,3-dihydrospiro[indene-2,4′-piperidin]-1′-yl)-3-(2,4-bis(trifluoromethyl)-7,8-dihydroquinolin-5-yl)-1,5-dihydro-4H-pyrazolo[3,4-d]pyrimidin-4-one] stands 7.22 to 7.70; under `N[C@@H]1c2ccccc2CC12CCN(c1nc3[nH]nc(C4(c5coc6ccccc56)CC4)c3c(=O)[nH]1)CC2` [Example 250, (S)-6-(1-amino-1,3-dihydrospiro[indene-2,4′-piperidin]-1′-yl)-3-(1-(benzofuran-3-yl)cyclopropyl)-1,5-dihydro-4H-pyrazolo[3,4-d]pyrimidin-4-one], at least 7.70.
Still for that read-out and setting: for `C[C@@H]1OCC2(CCN(c3nc4[nH]nc(C5(c6cccc(O)c6)CC5)c4c(=O)[nH]3)CC2)[C@@H]1N` [Example 310, 6-((3S,4S)-4-amino-3-methyl-2-oxa-8-azaspiro[4.5]decan-8-yl)-3-(1-(3-hydroxyphenyl)cyclopropyl)-1,5-dihydro-4H-pyrazolo[3,4-d]pyrimidin-4-one] the value was 7.22 to 7.70.
In turn, `N[C@@H]1c2ccccc2CC12CCN(c1nc3[nH]nc(C4CCCc5ncccc54)c3c(=O)[nH]1)CC2` (stereo partly drawn) [Example 108, 6-((S)-1-amino-1,3-dihydrospiro[indene-2,4′-piperidin]-1′-yl)-3-(5,6,7,8-tetrahydroquinolin-5-yl)-1,5-dihydro-4H-pyrazolo[3,4-d]pyrimidin-4-one] had a pIC50 (numeric values) of 8.72.
As for `N[C@@H]1c2ccccc2CC12CCN(c1nc3[nH]nc(C4=CC5(COC5)c5ccccc54)c3c(=O)[nH]1)CC2` [Example 170, (S)-6-(1-amino-1,3-dihydrospiro[indene-2,4′-piperidin]-1′-yl)-3-(spiro[indene-1,3′-oxetan]-3-yl)-1,5-dihydro-4H-pyrazolo[3,4-d]pyrimidin-4-one], the pIC50 (class symbols) is at least 7.70.
Take `N[C@@H]1c2ccccc2CC12CCN(c1nc3[nH]nc(C4(c5cccc(OC6CC6)c5)CC4)c3c(=O)[nH]1)CC2` [Example 227, (S)-6-(1-amino-1,3-dihydrospiro[indene-2,4′-piperidin]-1′-yl)-3-(1-(3-cyclopropoxyphenyl)cyclopropyl)-1,5-dihydro-4H-pyrazolo[3,4-d]pyrimidin-4-one]: the pIC50 (class symbols) was at least 7.70.
With `C[C@@H]1OCC2(CCN(c3nc4[nH]nc(C5(c6ccc(C#N)cc6)CC5)c4c(=O)[nH]3)CC2)[C@@H]1N` [Example 315, 4-(1-(6-((3S,4S)-4-amino-3-methyl-2-oxa-8-azaspiro[4.5]decan-8-yl)-4-oxo-4,5-dihydro-1H-pyrazolo[3,4-d]pyrimidin-3-yl)cyclopropyl)benzonitrile], the pIC50 (class symbols) was 7.22 to 7.70.
On the same count and under the same terms, under `N[C@@H]1Cn2nccc2C12CCN(c1nc3[nH]nc(C4(c5ccccc5)CC4)c3c(=O)[nH]1)CC2` [Example 199, (S)-6-(5′-amino-5′,6′-dihydrospiro[piperidine-4,4′-pyrrolo[1,2-b]pyrazol]-1-yl)-3-(1-phenylcyclopropyl)-1,5-dihydro-4H-pyrazolo[3,4-d]pyrimidin-4-one] stands 7.22 to 7.70; under `COc1ccc(C2(c3n[nH]c4nc(N5CCC6(CC5)Cc5ccccc5[C@H]6N)[nH]c(=O)c34)CC2)c(OC)c1` [Example 232, (S)-6-(1-amino-1,3-dihydrospiro[indene-2,4′-piperidin]-1′-yl)-3-(1-(2,4-dimethoxyphenyl)cyclopropyl)-1,5-dihydro-4H-pyrazolo[3,4-d]pyrimidin-4-one], at least 7.70.
`N[C@@H]1c2ccccc2CC12CCN(c1nc3[nH]nc(C4(c5ccccc5)CC4(Cl)Cl)c3c(=O)[nH]1)CC2` (stereo partly drawn) [Example 7, 6-((S)-1-amino-1,3-dihydrospiro[indene-2,4′-piperidin]-1′-yl)-3-(2,2-dichloro-1-phenylcyclopropyl)-1,5-dihydro-4H-pyrazolo[3,4-d]pyrimidin-4-one]: the negative-log IC50 (pIC50) (class symbols) was under 7.22.
Where the note is “class symbols”, `N[C@@H]1c2ccccc2CC12CCN(c1nc3[nH]nc(C4(c5cccnc5)CC4)c3c(=O)[nH]1)CC2` [Example 247, (S)-6-(1-amino-1,3-dihydrospiro[indene-2,4′-piperidin]-1′-yl)-3-(1-(pyridin-3-yl)cyclopropyl)-1,5-dihydro-4H-pyrazolo[3,4-d]pyrimidin-4-one] gave a pIC50 of at least 7.70.
For the setting “class symbols”, `Cc1cccc(C2(c3n[nH]c4nc(N5CCC6(CC5)CO[C@@H](C)[C@H]6N)[nH]c(=O)c34)CC2)n1` [Example 319, 6-((3S,4S)-4-amino-3-methyl-2-oxa-8-azaspiro[4.5]decan-8-yl)-3-(1-(6-methylpyridin-2-yl)cyclopropyl)-1,5-dihydro-4H-pyrazolo[3,4-d]pyrimidin-4-one] had a negative-log IC50 (pIC50) of under 7.22.
